For 16 compounds, Ki and IC50 results are on record in BindingDB's records for doi:10.1016/j.bmcl.2004.10.029 (Glaxosmithkline, 2005).

The Ki is a measure of affinity in units of concentration, obtained from inhibition or displacement. A low value points to higher affinity. Broadly, the IC50 is the concentration that gives 50% inhibition. The low end stands for inhibition by little substance, the high end for a need for much substance.

In assay [1] the target is T1, Dimer of Gag-Pol polyprotein [501-599,Q508K,L534I,L564I,C568A,C596A] (Human immunodeficiency virus 1, UniProt P03367, C568A/C596A/L534I/L564I/Q508K).
T1 construct: 501-599
Put plainly: Protease Inhibition Assay. The conditions noted are these: pH 6.4; 25 °C. On the procedure: The Ki values were determined using fluorogenic substrate, 2-(aminobenzoyl)-Thr-Ile-Nle-Phe(p-NO2)-Gln-ArgNH2. A standard curve relating changes in fluorescent intensity to changes in concentration of product was used to convert fluorescent changes into molar velocities. The amount of cleavage was determined by HPLC.

In assay [2] the target is T1, Dimer of Gag-Pol polyprotein [501-599,Q508K,L534I,L564I,C568A,C596A]. Briefly: Protease Inhibition Assay. The conditions noted are these: pH 6.4; 25 °C. This is another data set of the same source.

The structures appear in SMILES notation.

`CN1CCN(C(=O)COc2ccc(C[C@H](C[C@H](O)CN3C(=O)[C@@H](Cc4ccccc4)C[C@@H]3Cc3ccccc3)C(=O)N[C@H]3c4ccccc4C[C@H]3O)cc2)CC1` [(2R,4S)-5-[(3S,5R)-3,5-dibenzyl-2-oxopyrrolidin-1-yl]-4-hydroxy-N-[(1S,2R)-2-hydroxy-2,3-dihydro-1H-inden-1-yl]-2-({4-[2-(4-methylpiperazin-1-yl)-2-oxoethoxy]phenyl}methyl)pentanamide] showed a Ki in assay [1] of 0.05 nM. The IC50 in assay [2] amounted to 130 nM. With `COCCOCCOc1ccc(C[C@H](C[C@H](O)CN2C(=O)[C@@H](Cc3ccccc3)C[C@@H]2Cc2ccccc2)C(=O)N[C@H]2c3ccccc3C[C@H]2O)cc1` [(2R,4S)-5-[(3S,5R)-3,5-dibenzyl-2-oxopyrrolidin-1-yl]-4-hydroxy-N-[(1S,2R)-2-hydroxy-2,3-dihydro-1H-inden-1-yl]-2-({4-[2-(2-methoxyethoxy)ethoxy]phenyl}methyl)pentanamide], in assay [1], the Ki worked out at 0.02 nM. Besides, the IC50 in assay [2] was determined as 93 nM. The corresponding values for `O=C(N[C@H]1c2ccccc2C[C@H]1O)[C@H](Cc1ccccc1)C[C@H](O)CN1C(=O)[C@@H](Cc2ccccc2)C[C@@H]1Cc1ccc(OCC(=O)N2CCOCC2)cc1` [pyrrolidinone based inhibitor 1k] are 0.1 nM and 200 nM.

Regarding `O=C(N[C@H]1c2ccccc2C[C@H]1O)[C@H](Cc1ccccc1)C[C@H](O)CN1C(=O)[C@@H](Cc2ccccc2)C[C@@H]1Cc1ccc(O)cc1` [(2R,4S)-2-benzyl-5-[(3S,5R)-3-benzyl-5-[(4-hydroxyphenyl)methyl]-2-oxopyrrolidin-1-yl]-4-hydroxy-N-[(1S,2R)-2-hydroxy-2,3-dihydro-1H-inden-1-yl]pentanamide], in assay [2], the IC50 is 200 nM. As to `O=C(N[C@H]1c2ccccc2C[C@H]1O)[C@H](Cc1ccc(OCCO)cc1)C[C@H](O)CN1C(=O)[C@@H](Cc2ccccc2)C[C@@H]1Cc1ccccc1` [(2R,4S)-5-[(3S,5R)-3,5-dibenzyl-2-oxopyrrolidin-1-yl]-4-hydroxy-N-[(1S,2R)-2-hydroxy-2,3-dihydro-1H-inden-1-yl]-2-{[4-(2-hydroxyethoxy)phenyl]methyl}pentanamide], the Ki in assay [1] was found to be 0.02 nM. The same compound gave a concentration for half-maximal inhibition (IC50) in assay [2] of 94 nM.

In assay [1], `O=C(N[C@H]1c2ccccc2C[C@H]1O)[C@H](Cc1ccc(OCC(=O)N2CCOCC2)cc1)C[C@H](O)CN1C(=O)[C@@H](Cc2ccccc2)C[C@@H]1Cc1ccccc1` [(2R,4S)-5-[(3S,5R)-3,5-dibenzyl-2-oxopyrrolidin-1-yl]-4-hydroxy-N-[(1S,2R)-2-hydroxy-2,3-dihydro-1H-inden-1-yl]-2-({4-[2-(morpholin-4-yl)-2-oxoethoxy]phenyl}methyl)pentanamide] yielded a Ki of 0.02 nM. In assay [2], the IC50 was found to be 63 nM. In the same order, the values of `O=C(N[C@H]1c2ccccc2C[C@H]1O)[C@H](Cc1ccccc1)C[C@H](O)CN1C(=O)[C@@H](Cc2ccccc2)C[C@@H]1Cc1ccc(OCCO)cc1` [(2R,4S)-2-benzyl-5-[(3S,5R)-3-benzyl-5-{[4-(2-hydroxyethoxy)phenyl]methyl}-2-oxopyrrolidin-1-yl]-4-hydroxy-N-[(1S,2R)-2-hydroxy-2,3-dihydro-1H-inden-1-yl]pentanamide] are 0.3 nM and 480 nM. The corresponding values for `O=C(N[C@H]1c2ccccc2C[C@H]1O)[C@H](Cc1ccc(OCCOC(=O)N2CCOCC2)cc1)C[C@H](O)CN1C(=O)[C@@H](Cc2ccccc2)C[C@@H]1Cc1ccccc1` [2-{4-[(2R)-2-[(2S)-3-[(3S,5R)-3,5-dibenzyl-2-oxopyrrolidin-1-yl]-2-hydroxypropyl]-2-{[(1S,2R)-2-hydroxy-2,3-dihydro-1H-inden-1-yl]carbamoyl}ethyl]phenoxy}ethyl morpholine-4-carboxylate] are 0.05 nM and 240 nM. In turn, `O=C(N[C@H]1c2ccccc2C[C@H]1O)[C@H](Cc1ccccc1)C[C@H](O)CN1C(=O)[C@@H](Cc2ccccc2)C[C@@H]1Cc1ccc(Cc2ccccc2)cc1` [(2R,4S)-2-benzyl-5-[(3S,5R)-3-benzyl-5-[(4-benzylphenyl)methyl]-2-oxopyrrolidin-1-yl]-4-hydroxy-N-[(1S,2R)-2-hydroxy-2,3-dihydro-1H-inden-1-yl]pentanamide] returned a Ki in assay [1] of 0.13 nM. In addition, in assay [2], the IC50 stood at 550 nM. Consider `O=C(N[C@H]1c2ccccc2C[C@H]1O)[C@H](Cc1ccc(OCCN2CCOCC2)cc1)C[C@H](O)CN1C(=O)[C@@H](Cc2ccccc2)C[C@@H]1Cc1ccccc1` [(2R,4S)-5-[(3S,5R)-3,5-dibenzyl-2-oxopyrrolidin-1-yl]-4-hydroxy-N-[(1S,2R)-2-hydroxy-2,3-dihydro-1H-inden-1-yl]-2-({4-[2-(morpholin-4-yl)ethoxy]phenyl}methyl)pentanamide], for which the Ki in assay [1] came to 0.14 nM. In assay [2], this compound yielded a concentration for half-maximal inhibition (IC50) of 83 nM. In the same order, the values of `O=C(N[C@H]1c2ccccc2C[C@H]1O)[C@H](Cc1ccc(OCc2ccccn2)cc1)C[C@H](O)CN1C(=O)[C@@H](Cc2ccccc2)C[C@@H]1Cc1ccccc1` [(2R,4S)-5-[(3S,5R)-3,5-dibenzyl-2-oxopyrrolidin-1-yl]-4-hydroxy-N-[(1S,2R)-2-hydroxy-2,3-dihydro-1H-inden-1-yl]-2-{[4-(pyridin-2-ylmethoxy)phenyl]methyl}pentanamide] are 0.07 nM and 380 nM. The corresponding values for `O=C(N[C@H]1c2ccccc2C[C@H]1O)[C@H](Cc1ccc(O)cc1)C[C@H](O)CN1C(=O)[C@@H](Cc2ccccc2)C[C@@H]1Cc1ccccc1` [(2R,4S)-5-[(3S,5R)-3,5-dibenzyl-2-oxopyrrolidin-1-yl]-4-hydroxy-N-[(1S,2R)-2-hydroxy-2,3-dihydro-1H-inden-1-yl]-2-[(4-hydroxyphenyl)methyl]pentanamide] are 0.06 nM and 320 nM. On to `O=C(N[C@H]1c2ccccc2C[C@H]1O)[C@H](Cc1ccccc1)C[C@H](O)CN1C(=O)[C@@H](Cc2ccccc2)C[C@@H]1Cc1ccc(OCCN2CCOCC2)cc1` [pyrrolidinone based inhibitor 1g], for which the Ki in assay [1] came out at 1.3 nM. In assay [2], this compound displayed an IC50 of 960 nM.

For the compound `O=C(N[C@H]1c2ccccc2C[C@H]1O)[C@H](Cc1ccc(Cc2ccccc2)cc1)C[C@H](O)CN1C(=O)[C@@H](Cc2ccccc2)C[C@@H]1Cc1ccccc1` [(2R,4S)-2-[(4-benzylphenyl)methyl]-5-[(3S,5R)-3,5-dibenzyl-2-oxopyrrolidin-1-yl]-4-hydroxy-N-[(1S,2R)-2-hydroxy-2,3-dihydro-1H-inden-1-yl]pentanamide], the affinity in assay [1] corresponds to a Ki of 0.11 nM. Moreover, the IC50 in assay [2] turned out to be 920 nM. Compound `O=C(N[C@H]1c2ccccc2C[C@H]1O)[C@H](Cc1ccccc1)C[C@H](O)CN1C(=O)[C@@H](Cc2ccccc2)C[C@@H]1Cc1ccccc1` [pyrrolidinone scaffold 8b] had an IC50 in assay [2] of 0.05 nM.

`NC(=O)COc1ccc(C[C@H](C[C@H](O)CN2C(=O)[C@@H](Cc3ccccc3)C[C@@H]2Cc2ccccc2)C(=O)N[C@H]2c3ccccc3C[C@H]2O)cc1` [(2R,4S)-2-{[4-(carbamoylmethoxy)phenyl]methyl}-5-[(3S,5R)-3,5-dibenzyl-2-oxopyrrolidin-1-yl]-4-hydroxy-N-[(1S,2R)-2-hydroxy-2,3-dihydro-1H-inden-1-yl]pentanamide] yielded an inhibition constant Ki in assay [1] of 0.07 nM. This compound yielded an IC50 in assay [2] of 360 nM.
